Calls of active or inactive are those of the source.
Legend:
[1] = molecular target: T1, DNA dC->dU-editing enzyme APOBEC-3A (Homo sapiens, UniProt P31941); experiment: Dose Response confirmation of small molecule APOBEC3A DNA Deaminase Inhibitors via a fluorescence-based single-stranded DNA deaminase assay. [Related pubchem assays (depositor defined):AID493011, AID493024]; type: functional
[2] = molecular target: T2, Polyadenylate-binding protein 1 (Homo sapiens, UniProt P11940); experiment: PABP inhibition in translation initiation, SAR follow-up (AID 435018); type: functional
[3] = molecular target: T3, Eukaryotic translation initiation factor 4H (Homo sapiens, UniProt Q15056); experiment: eIF4H inhibition in translation initiation, SAR follow-up (AID 435011); type: functional
[4] = molecular target: T4, DNA dC->dU-editing enzyme APOBEC-3G (Homo sapiens, UniProt Q9HC16); type: functional
[5] = molecular target: T2, Polyadenylate-binding protein 1; experiment: PABP poly(A) RNA binding inhibitors, primary screen, biochemical, fluorescence polarization, uHTS (AID 2014)
[6] = molecular target: T3, Eukaryotic translation initiation factor 4H; experiment: human eIF4H binding inhibitors, primary screen, translation initiation inhibitor project, biochemical, uHTS, fluorescence polarization (AID 2012)
[7] = molecular target: T1, DNA dC->dU-editing enzyme APOBEC-3A; experiment: APOBEC3A DNA deaminase inhibitors, dose response, biochemical (AID 504722); type: functional
[8] = molecular target: T4, DNA dC->dU-editing enzyme APOBEC-3G; experiment: Dose Response confirmation of small molecule APOBEC3G DNA Deaminase Inhibitors via a fluorescence-based single-stranded DNA deaminase assay. [Related pubchem assays (depositor defined):AID493012, AID493028]; type: functional
[9] = molecular target: T5, Rac GTPase-activating protein 1 (Homo sapiens, UniProt Q9H0H5); experiment: MgcRacGAP GTPase-activating activity inhibitors, confirmation, biochemical, ADP Hunter fluorescence, primary and confirmatory (AID 624330); type: functional
T5 sequence (Q9H0H5 whole entry): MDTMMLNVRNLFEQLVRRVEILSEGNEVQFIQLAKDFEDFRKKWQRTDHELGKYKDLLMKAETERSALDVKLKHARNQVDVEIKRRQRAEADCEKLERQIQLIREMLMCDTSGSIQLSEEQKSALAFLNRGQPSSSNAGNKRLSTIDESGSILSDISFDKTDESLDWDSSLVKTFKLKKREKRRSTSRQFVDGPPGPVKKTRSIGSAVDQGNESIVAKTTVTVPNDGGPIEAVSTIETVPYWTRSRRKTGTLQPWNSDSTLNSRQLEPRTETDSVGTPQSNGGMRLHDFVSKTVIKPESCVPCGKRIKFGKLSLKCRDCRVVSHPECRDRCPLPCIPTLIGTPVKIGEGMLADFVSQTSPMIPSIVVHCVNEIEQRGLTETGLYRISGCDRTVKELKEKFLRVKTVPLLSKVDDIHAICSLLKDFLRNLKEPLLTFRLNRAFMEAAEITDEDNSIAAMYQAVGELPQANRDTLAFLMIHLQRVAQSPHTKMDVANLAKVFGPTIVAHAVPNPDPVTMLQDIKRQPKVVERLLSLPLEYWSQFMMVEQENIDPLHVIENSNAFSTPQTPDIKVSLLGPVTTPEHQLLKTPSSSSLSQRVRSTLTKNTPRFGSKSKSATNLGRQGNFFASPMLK

[10] = molecular target: Voltage-dependent T-type calcium channel subunit alpha-1H (Homo sapiens, UniProt O95180); experiment: Cav3.2 T-type channel inhibitors, cell-based, synthetic library set 1, calcium flux (AID 493022); type: functional
[11] = molecular target: G-protein coupled receptor 55 (Homo sapiens, UniProt Q9Y2T6); experiment: SAR analysis of selective Agonists of GPR55 using an Image-Based Assay - Set 2. [Related pubchem assays (depositor defined):AID1961, AID1965]; type: functional
Cannabinoid receptor 2 [12] = molecular target: T6, Cannabinoid receptor 2 (Homo sapiens, UniProt P34972); experiment: SAR analysis of antagonists of the Cannabinoid Receptor 2 using an Image-Based Assay - Set 2. [Related pubchem assays (depositor defined):AID1961, AID1965]; type: functional
Cannabinoid receptor 1 [13] = molecular target: T7, Cannabinoid receptor 1 (Homo sapiens, UniProt P21554); experiment: SAR analysis of antagonists of the Cannabinoid Receptor 1 using an Image-Based Assay - Set 3. [Related pubchem assays (depositor defined):AID1961, AID1965]; type: functional
[14] = molecular target: T8, G-protein coupled receptor 35 (Homo sapiens, UniProt Q9HC97); experiment: SAR analysis of Antagonists of the GPR35 Receptor using an Image-Based Assay - Set 4. [Related pubchem assays (depositor defined):[…]]; type: functional
[15] = molecular target: T8, G-protein coupled receptor 35; experiment: SAR analysis of Agonists of the GPR35 Receptor using an Image-Based Assay - Set 3. [Related pubchem assays (depositor defined):AID1961, AID1965]; type: functional
Cannabinoid receptor 1 [16] = molecular target: T7, Cannabinoid receptor 1; experiment: SAR analysis of agonists of the Cannabinoid Receptor 1 using an Image-Based Assay - Set 3. [Related pubchem assays (depositor defined):AID1961, AID1965]; type: functional
Cannabinoid receptor 2 [17] = molecular target: T6, Cannabinoid receptor 2; experiment: SAR analysis of agonists of the Cannabinoid Receptor 2 using an Image-Based Assay - Set 2. [Related pubchem assays (depositor defined):AID1961, AID1965]; type: functional
Hexokinase-1 = Hexokinase-1 (Homo sapiens, UniProt P19367); experiment: hexokinase 1 activators, dose response, selectivity assay for HKDC1 activator project, biochemical (AID 504762); type: functional
Hexokinase HKDC1 = Hexokinase HKDC1 (Homo sapiens, UniProt Q2TB90); experiment: HKDC1 hexokinase inhibitors, dose response, biochemical, W721R variant (AID 504729); type: functional
[18] = molecular target: Glyceraldehyde-3-phosphate dehydrogenase (Homo sapiens, UniProt P04406)
[19] = molecular target: Alkaline phosphatase, placental type (Homo sapiens, UniProt P05187); experiment: PLAP enzyme inhibitors, confirmation, biochemical, luminescence (AID 1512); type: functional
Chain of Alkaline phosphatase, placental type (P05187 whole entry): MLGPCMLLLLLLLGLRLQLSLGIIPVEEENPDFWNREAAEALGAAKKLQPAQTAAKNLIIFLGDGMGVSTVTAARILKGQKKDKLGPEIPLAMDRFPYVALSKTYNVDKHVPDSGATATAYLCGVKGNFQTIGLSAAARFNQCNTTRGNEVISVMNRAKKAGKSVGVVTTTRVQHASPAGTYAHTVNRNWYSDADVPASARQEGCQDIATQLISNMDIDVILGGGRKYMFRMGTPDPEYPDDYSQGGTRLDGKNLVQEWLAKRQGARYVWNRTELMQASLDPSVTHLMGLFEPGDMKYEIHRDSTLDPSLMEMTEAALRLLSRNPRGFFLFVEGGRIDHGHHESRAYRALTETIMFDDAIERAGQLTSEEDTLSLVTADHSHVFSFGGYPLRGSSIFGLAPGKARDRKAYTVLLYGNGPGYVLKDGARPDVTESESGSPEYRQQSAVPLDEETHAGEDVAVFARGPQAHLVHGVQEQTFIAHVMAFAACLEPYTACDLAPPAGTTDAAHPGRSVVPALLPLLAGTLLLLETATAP

T8 sequence (Q9HC97 whole entry): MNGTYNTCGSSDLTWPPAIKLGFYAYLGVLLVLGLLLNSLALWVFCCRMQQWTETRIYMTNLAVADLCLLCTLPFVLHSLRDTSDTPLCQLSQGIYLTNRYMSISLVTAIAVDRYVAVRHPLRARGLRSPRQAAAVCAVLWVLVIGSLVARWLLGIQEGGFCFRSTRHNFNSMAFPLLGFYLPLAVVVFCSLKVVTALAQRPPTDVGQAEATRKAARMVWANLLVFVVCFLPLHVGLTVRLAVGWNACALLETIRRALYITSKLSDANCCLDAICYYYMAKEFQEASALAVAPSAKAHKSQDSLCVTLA
T2 sequence (P11940 whole entry): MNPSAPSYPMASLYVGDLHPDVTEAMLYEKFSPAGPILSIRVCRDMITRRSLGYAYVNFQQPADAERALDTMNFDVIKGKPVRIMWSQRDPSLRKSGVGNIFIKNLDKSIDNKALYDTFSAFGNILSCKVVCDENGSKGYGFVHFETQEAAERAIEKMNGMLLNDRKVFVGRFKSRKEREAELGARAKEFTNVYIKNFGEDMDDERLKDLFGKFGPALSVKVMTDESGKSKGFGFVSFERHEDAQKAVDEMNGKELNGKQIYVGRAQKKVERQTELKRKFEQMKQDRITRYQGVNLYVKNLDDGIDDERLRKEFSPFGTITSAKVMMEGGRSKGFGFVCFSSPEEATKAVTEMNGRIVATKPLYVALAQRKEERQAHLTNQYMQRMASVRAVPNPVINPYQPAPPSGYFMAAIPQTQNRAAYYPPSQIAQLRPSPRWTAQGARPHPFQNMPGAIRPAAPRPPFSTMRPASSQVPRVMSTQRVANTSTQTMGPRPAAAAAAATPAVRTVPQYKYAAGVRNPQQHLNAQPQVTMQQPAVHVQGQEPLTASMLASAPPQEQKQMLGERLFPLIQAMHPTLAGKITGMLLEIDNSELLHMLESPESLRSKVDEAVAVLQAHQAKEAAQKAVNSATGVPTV
T4 sequence (Q9HC16 whole entry): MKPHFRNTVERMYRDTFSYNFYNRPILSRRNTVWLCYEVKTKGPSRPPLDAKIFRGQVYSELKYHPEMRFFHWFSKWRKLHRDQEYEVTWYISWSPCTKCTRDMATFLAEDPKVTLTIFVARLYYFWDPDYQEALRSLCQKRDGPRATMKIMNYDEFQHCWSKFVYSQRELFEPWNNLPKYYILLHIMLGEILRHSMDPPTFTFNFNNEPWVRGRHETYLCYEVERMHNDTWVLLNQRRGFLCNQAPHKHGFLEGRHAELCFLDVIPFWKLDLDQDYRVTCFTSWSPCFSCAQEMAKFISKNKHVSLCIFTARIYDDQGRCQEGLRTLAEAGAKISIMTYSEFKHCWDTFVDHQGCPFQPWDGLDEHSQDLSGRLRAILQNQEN
T1 sequence (P31941 whole entry): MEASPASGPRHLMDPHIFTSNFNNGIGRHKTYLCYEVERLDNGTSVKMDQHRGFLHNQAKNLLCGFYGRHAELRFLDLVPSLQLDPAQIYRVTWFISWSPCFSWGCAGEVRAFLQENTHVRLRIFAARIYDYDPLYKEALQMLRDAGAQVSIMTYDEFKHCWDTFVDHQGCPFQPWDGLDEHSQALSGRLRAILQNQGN
T7 sequence (P21554 whole entry): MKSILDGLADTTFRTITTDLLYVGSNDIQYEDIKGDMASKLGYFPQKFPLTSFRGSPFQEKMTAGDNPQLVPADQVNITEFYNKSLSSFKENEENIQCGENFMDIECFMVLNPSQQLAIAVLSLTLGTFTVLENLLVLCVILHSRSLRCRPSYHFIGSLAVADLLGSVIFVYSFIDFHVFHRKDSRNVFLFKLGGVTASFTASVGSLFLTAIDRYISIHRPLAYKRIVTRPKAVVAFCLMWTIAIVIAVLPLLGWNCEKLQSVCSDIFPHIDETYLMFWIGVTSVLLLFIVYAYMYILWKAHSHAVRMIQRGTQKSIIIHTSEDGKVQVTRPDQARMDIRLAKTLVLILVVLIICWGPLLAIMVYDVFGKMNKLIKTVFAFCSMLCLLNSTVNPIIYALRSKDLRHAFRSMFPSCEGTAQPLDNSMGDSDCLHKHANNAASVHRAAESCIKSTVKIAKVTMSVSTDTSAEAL
T6 sequence (P34972 whole entry): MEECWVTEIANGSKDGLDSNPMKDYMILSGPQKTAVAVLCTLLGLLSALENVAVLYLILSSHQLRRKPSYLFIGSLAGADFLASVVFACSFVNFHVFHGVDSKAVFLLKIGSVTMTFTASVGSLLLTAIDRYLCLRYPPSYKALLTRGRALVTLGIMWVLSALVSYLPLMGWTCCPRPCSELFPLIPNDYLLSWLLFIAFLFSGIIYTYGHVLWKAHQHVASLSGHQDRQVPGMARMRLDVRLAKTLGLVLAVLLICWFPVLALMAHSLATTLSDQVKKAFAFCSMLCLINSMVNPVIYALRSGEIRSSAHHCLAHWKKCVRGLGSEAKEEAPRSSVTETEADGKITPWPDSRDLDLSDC
Chain of Hexokinase-1 (P19367 whole entry): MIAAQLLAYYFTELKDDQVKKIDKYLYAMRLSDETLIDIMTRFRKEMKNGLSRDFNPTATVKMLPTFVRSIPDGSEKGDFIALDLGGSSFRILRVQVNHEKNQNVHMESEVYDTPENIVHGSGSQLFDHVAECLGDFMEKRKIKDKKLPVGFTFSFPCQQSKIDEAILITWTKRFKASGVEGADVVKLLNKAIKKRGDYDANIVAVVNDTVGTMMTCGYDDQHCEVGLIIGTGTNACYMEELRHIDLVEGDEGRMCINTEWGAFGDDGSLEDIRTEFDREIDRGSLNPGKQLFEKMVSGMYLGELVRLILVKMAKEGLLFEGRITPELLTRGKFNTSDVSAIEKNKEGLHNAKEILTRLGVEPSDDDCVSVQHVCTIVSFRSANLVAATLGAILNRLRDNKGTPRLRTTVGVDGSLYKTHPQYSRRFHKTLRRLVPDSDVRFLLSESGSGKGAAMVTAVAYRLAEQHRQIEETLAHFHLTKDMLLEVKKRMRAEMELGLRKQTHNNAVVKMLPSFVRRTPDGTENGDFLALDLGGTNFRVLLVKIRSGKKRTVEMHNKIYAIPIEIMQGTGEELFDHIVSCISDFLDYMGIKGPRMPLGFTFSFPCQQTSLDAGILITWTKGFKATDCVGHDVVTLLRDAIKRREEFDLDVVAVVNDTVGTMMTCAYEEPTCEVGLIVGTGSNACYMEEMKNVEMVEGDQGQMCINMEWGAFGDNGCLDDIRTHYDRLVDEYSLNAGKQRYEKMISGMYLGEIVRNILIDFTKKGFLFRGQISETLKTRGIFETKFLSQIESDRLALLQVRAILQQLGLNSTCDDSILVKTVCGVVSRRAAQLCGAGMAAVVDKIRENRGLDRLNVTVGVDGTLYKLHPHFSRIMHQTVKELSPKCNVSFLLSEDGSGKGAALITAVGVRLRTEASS
Chain of G-protein coupled receptor 55 (Q9Y2T6 whole entry): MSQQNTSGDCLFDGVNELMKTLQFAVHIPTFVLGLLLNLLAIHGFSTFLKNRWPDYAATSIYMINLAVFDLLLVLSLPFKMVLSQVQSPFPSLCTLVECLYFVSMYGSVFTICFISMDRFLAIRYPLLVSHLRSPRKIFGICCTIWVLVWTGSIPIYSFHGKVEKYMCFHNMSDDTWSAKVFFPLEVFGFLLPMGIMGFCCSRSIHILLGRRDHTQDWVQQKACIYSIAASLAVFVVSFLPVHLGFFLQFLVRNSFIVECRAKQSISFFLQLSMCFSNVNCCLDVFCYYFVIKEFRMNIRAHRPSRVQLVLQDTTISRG
Chain of Glyceraldehyde-3-phosphate dehydrogenase (P04406 whole entry): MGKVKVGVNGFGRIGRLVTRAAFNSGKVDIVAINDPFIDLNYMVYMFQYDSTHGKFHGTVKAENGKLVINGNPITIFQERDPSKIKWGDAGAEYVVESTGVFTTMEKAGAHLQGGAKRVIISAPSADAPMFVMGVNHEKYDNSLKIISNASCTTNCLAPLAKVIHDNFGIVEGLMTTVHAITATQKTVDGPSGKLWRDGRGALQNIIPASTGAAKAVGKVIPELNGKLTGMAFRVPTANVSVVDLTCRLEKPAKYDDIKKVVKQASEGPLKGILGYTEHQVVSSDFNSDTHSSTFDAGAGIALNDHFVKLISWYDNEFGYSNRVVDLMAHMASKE

CCOC(=O)c1ccc2c(c1)N(CC)C(=O)c1ccccc1S2
IC50 [1]: 2.24 µM (active) | IC50 [2]: 3.48 µM (active) | IC50 [3]: 20.7 µM (active) | IC50 [4]: 4.15 µM (active) | IC50 [5]: 12.2 µM (active) | IC50 [6]: > 100 µM (inactive)

CCOCCCn1c(=O)c2ccccc2n2c(S)nnc12
IC50 [7]: > 100 µM (inactive) | IC50 [8]: 5.54 µM (active) | IC50 [9]: 21.9 µM (active)

O=C(COc1ccccc1F)Nc1nnc(-c2ccc3c(c2)OCCO3)o1
EC50 [10]: 10 µM (active)

Cc1cccc(N2CCN(C(=O)c3cccc(S(=O)(=O)N4CCOCC4)c3)CC2)c1C
EC50 [11]: > 32 µM (inactive) | IC50 (Cannabinoid receptor 2 [12]): > 32 µM (inactive) | IC50 (Cannabinoid receptor 1 [13]): > 32 µM (inactive) | IC50 [14]: > 32 µM (inactive) | EC50 [15]: > 32 µM (inactive) | EC50 (Cannabinoid receptor 1 [16]): > 32 µM (inactive) | EC50 (Cannabinoid receptor 2 [17]): > 32 µM (inactive)

O=C(CNC(=O)c1ccc2c(c1)OCCO2)N/N=C/c1ccc(O)cc1O
EC50 (Hexokinase-1): > 80 µM (inactive) | IC50 (Hexokinase HKDC1): > 80 µM (inactive) | IC50 [9]: 160 µM (active)

CN(C)C(=O)c1cc(-c2ccc(Cl)cc2Cl)n[nH]1
IC50 [18]: > 100 µM (not active) | IC50 [19]: > 100 µM (inactive)

— ChEMBL document CHEMBL1201862, “PubChem BioAssay data set” (2004)
